Laboratory results as given in patent US20120251511A1, “COMPOSITION AND PRODUCTS FOR ENABLING THE PRODUCTION OF EQUOL IN VIVO” (priority 2011, published 2012).

Legend:
[1] = tested on: androgenic alopecia (hair loss); assay: Observed effects on androgenic alopecia (hair loss); assay type: in vivo, human; details: inulin supplements 4 grams daily, one individual
Text: The goal of the first experiment, performed in June 2006, was to investigate the ability for the BLDG formula to show both objective and subjective results. Objective results included blood and urine samples testing for the presence of equol. Subjective results included the documentation of observed effects on androgenic alopecia (hair loss) and acne vulgaris.
The test subject was a person, in good overall health. Subject was physically active, had adequate nutrition and was not taking any drugs or supplements that were known to cause hair loss or acne.
The subject was experiencing a high degree of shedding of the hair from areas of the scalp consistent with male pattern baldness. Miniaturization of the hair follicles on the scalp was noticeable along the hair line, part line and vertex upon close observation. […] Generally, the subject would have been considered a Class II on the Norwood-Hamilton scale, but with some increased vertex thinning more attributable to a Class III.

[2] = HPLC/EC determination of daidzein and equol levels in blood serum and urine after the BLDG formula; details: for concentration at 1 day / concentration at 7 day / concentration at 21 day: human, oral; for concentration at 1 day: Day 1, plasma; for concentration at 7 day: Day 7, plasma
Protocol: The subject's diet was limited to 20 grams of saturated fat per day. The subject also consumed a healthy amount of grains, fruits and vegetables.
Blood serum and urine samples were taken on days 1, 7 and 21 and the samples were sent to an independent laboratory for analysis.
Equol in the blood serum was tested (untreated) as unbound to sex hormone-binding globulin (SHBG).

[3] = in vitro; cited from earlier work
[4] = plasma, unbound equol, Mean, BLDG formula regimen equivalent to Example 1
[5] = plasma, unbound equol, ng/ml I, BLDG formula regimen equivalent to Example 1
[6] = plasma, unbound equol, ng/ml II, BLDG formula regimen equivalent to Example 1
[7] = Day 21, urine, BLDG formula regimen equivalent to Example 1

inulin
effect of added inulin on BLDG dosage needed [1]: able to cut his BLDG dosage in half

Oc1ccc([C@H]2COc3cc(O)ccc3C2)cc1 [S-equol]
increase in equol concentration between Day 7 and Day 21 ([2]; blood serum, BLDG formula): 3% | concentration at 1 day [2, 4]: 0 ng/mL | concentration at 7 day [2, 4]: 127 ng/mL | concentration at 21 day ([2]; plasma, unbound equol, Mean, Day 21, plasma, BLDG formula regimen equivalent to Example 1): 131 ng/mL | concentration at 1 day [2, 5]: 0 ng/mL | concentration at 7 day [2, 5]: 137 ng/mL | concentration at 21 day ([2]; plasma, unbound equol, ng/ml I, Day 21, plasma, BLDG formula regimen equivalent to Example 1): 122 ng/mL | concentration at 1 day [2, 6]: 0 ng/mL | concentration at 7 day [2, 6]: 117 ng/mL | concentration at 21 day ([2]; plasma, unbound equol, ng/ml II, Day 21, plasma, BLDG formula regimen equivalent to Example 1): 141 ng/mL | concentration at 21 day ([2]; urine, equol, Mean, Day 21, urine, BLDG formula regimen equivalent to Example 1): 638 ng/mL | concentration at 21 day ([2]; urine, equol, ng/ml I, Day 21, urine, BLDG formula regimen equivalent to Example 1): 613 ng/mL | concentration at 21 day ([2]; urine, equol, ng/ml II, Day 21, urine, BLDG formula regimen equivalent to Example 1): 662 ng/mL | blood levels that may be required to fully mitigate DHT at normal levels of circulation in men [3]: 100 ng/mL

O=c1c(-c2ccc(O)cc2)coc2cc(O)ccc12 [Daidzein, 4,7-Dihydroxyisoflavone]
daidzein, Mean [2, 7]: 43974.11 ng/mL | daidzein, ng/ml I [2, 7]: 44246.59 ng/mL | daidzein, ng/ml II [2, 7]: 43701.63 ng/mL | increase in daidzein levels between Day 7 and Day 21 ([2]; blood serum, BLDG formula): 45%
